# Laboratory results from patent publication US20110039721A1, “METHOD FOR PREDICTION ABOUT CARCINOGENICITY OF SUBSTANCE IN RODENT” (Chemicals Evaluation and Research Institute, priority 2007, published 2011).
# Key:
# [1] = classification of the substance (M+/M−); cited from earlier work
# [2] = tested on: mRNA expressed from the genes (A) to (D) in rat liver; experiment: Behavior of genes (mRNA expression level, oligo-DNA microarray) in rat liver after 28-day oral administration; format: in vivo; conditions: mRNA vs vehicle control group
# Outline: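 Rat liver RNA after 28 days of daily gavage dosing (male F344, 5 weeks old, four per group). A change reaching 1.5-fold, or 1/1.5, against solvent control scores as significant; opposite direction versus another carcinogen scores as not significant.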
# [3] = gene group (A), Unigene No. Rn.167075
# [4] = gene group (C), Unigene No. Rn.120914
structure (smiles),measurement,setting,value
"C=C(C)[C@H]1CC=C(C)CC1 [TS024, D-Limonene]",Mutagenicity by Ames test,[1],M−
"CCC1(c2ccccc2)C(=O)NC(=O)NC1=O [TS008, Phenobarbital]","Behavior of gene caused by administration of chemical substance, Gene No. 4846","[2]; gene group (A), Unigene No. Rn.144554",+
same,"Behavior of gene caused by administration of chemical substance, Gene No. 2026",[2]; [3],−
same,"Behavior of gene caused by administration of chemical substance, Gene No. 4218",[2]; [3],−
same,"Behavior of gene caused by administration of chemical substance, Gene No. 6182","[2]; gene group (A), Unigene No. Rn.5834",−
same,"Behavior of gene caused by administration of chemical substance, Gene No. 5600","[2]; gene group (A), Unigene No. Rn.9836",−
same,"Behavior of gene caused by administration of chemical substance, Gene No. 1494","[2]; gene group (B), Unigene No. Rn.1430",+
same,"Behavior of gene caused by administration of chemical substance, Gene No. 2045","[2]; gene group (B), Unigene No. Rn.19329",−
same,"Behavior of gene caused by administration of chemical substance, Gene No. 2203","[2]; gene group (B), Unigene No. Rn.21240",−
same,"Behavior of gene caused by administration of chemical substance, Gene No. 533","[2]; gene group (C), Unigene No. Rn.106184",+
same,"Behavior of gene caused by administration of chemical substance, Gene No. 725","[2]; gene group (C), Unigene No. Rn.108075",+
same,"Behavior of gene caused by administration of chemical substance, Gene No. 1163","[2]; gene group (C), Unigene No. Rn.11766",−
same,"Behavior of gene caused by administration of chemical substance, Gene No. 4973","[2]; gene group (C), Unigene No. Rn.118529",+
same,"Behavior of gene caused by administration of chemical substance, Gene No. 4095","[2]; gene group (C), Unigene No. Rn.119024",+
same,"Behavior of gene caused by administration of chemical substance, Gene No. 1334",[2]; [4],+
same,"Behavior of gene caused by administration of chemical substance, Gene No. 6620",[2]; [4],+
same,"Behavior of gene caused by administration of chemical substance, Gene No. 6303","[2]; gene group (C), Unigene No. Rn.123063",+
same,"Behavior of gene caused by administration of chemical substance, Gene No. 5878","[2]; gene group (C), Unigene No. Rn.143213",−
same,"Behavior of gene caused by administration of chemical substance, Gene No. 1131","[2]; gene group (C), Unigene No. Rn.144946",−
same,"Behavior of gene caused by administration of chemical substance, Gene No. 1562","[2]; gene group (C), Unigene No. Rn.14744",+
same,"Behavior of gene caused by administration of chemical substance, Gene No. 1741","[2]; gene group (C), Unigene No. Rn.1647",+
same,"Behavior of gene caused by administration of chemical substance, Gene No. 893","[2]; gene group (C), Unigene No. Rn.164817",+
same,"Behavior of gene caused by administration of chemical substance, Gene No. 6026","[2]; gene group (C), Unigene No. Rn.167685",+
same,"Behavior of gene caused by administration of chemical substance, Gene No. 154","[2]; gene group (C), Unigene No. Rn.185941",+
same,"Behavior of gene caused by administration of chemical substance, Gene No. 1993","[2]; gene group (C), Unigene No. Rn.18728",+
same,"Behavior of gene caused by administration of chemical substance, Gene No. 813","[2]; gene group (C), Unigene No. Rn.201760",+
same,"Behavior of gene caused by administration of chemical substance, Gene No. 2494","[2]; gene group (C), Unigene No. Rn.23969",+
same,"Behavior of gene caused by administration of chemical substance, Gene No. 2546","[2]; gene group (C), Unigene No. Rn.24561",+
same,"Behavior of gene caused by administration of chemical substance, Gene No. 3776","[2]; gene group (C), Unigene No. Rn.43232",−
same,"Behavior of gene caused by administration of chemical substance, Gene No. 3929","[2]; gene group (C), Unigene No. Rn.4620",+
same,"Behavior of gene caused by administration of chemical substance, Gene No. 1119","[2]; gene group (C), Unigene No. Rn.9757",+
same,"Behavior of gene caused by administration of chemical substance, Gene No. 6742","[2]; gene group (C), Unigene No. Rn.9779",+
same,"Behavior of gene caused by administration of chemical substance, Gene No. 5634","[2]; gene group (C), Unigene No. Rn.9862",+
same,"Behavior of gene caused by administration of chemical substance, Gene No. 5726","[2]; gene group (D), Unigene No. Rn.9939",−
same,Mutagenicity by Ames test,[1],M−
